# Tested on: B2M gene
# Test: B2M reactivation by 5-azadC in cells silenced by ELXR5-ZIM3 or CasX 491 (Example 12)
# Settings: 0 μM to 20 μM 5-azadC; B2M-targeting gRNA
structure (smiles),measurement,value
"Nc1ncn([C@H]2C[C@H](O)[C@@H](CO)O2)c(=O)n1 [5-azadC, 5-aza-2′-deoxycytidine, reference compound]",reactivation of the B2M gene upon 5-azadC treatment,reactivation of the B2M gene
